{"source": "patent US20110130355A1", "about": "“USE OF SOPHORICOSIDE IN THE MANUFACTURE OF MEDICAMENTS” (priority 2008, published 2011)", "key": {"[1]": {"tested_on": "ER-α", "test": "Immunohistochemical staining of the estrogen receptor of articular chondrocytes, percentage of positive cells", "assay_type": "in vivo, SD rats", "details": "OVX rats, 11 weeks; for ER-α positive cells in the articular cartilage, micrograph in words: FIG. 7; for positive ratio for ER-α expression in the articular chondrocytes, Total: whole knee joint", "description": "2) Elimination of endogenous peroxidases: The sections were treated with 3% H2O2-methanol for 10 minutes and washed by PBS for 5 minutes×3;\n3) Blocking of Antigen: The sections were treated with 0.3% bovine serum albumin (BSA) for 30 minutes;\nThe sections were incubated at 4° C. overnight and then washed by PBS for 5 minutes×3;\n5) Secondary antibody: After the addition of the biotinylated secondary antibody (1:200) the sections were incubated at 37° C. for 30 minutes and then washed by PBS for 5 minutes×3;\n6) Addition of SABC (Streptavidin Biotin Complex): After the addition of SABC (1:300) the sections were incubated at 37° C. for 30 minutes and then washed by PBS for 5 minutes×3;\n7) Visualization: 75 μl of 3,3′-diaminobenzidine (DAB) was added per section. After incubation for 3-6 minutes, the sections were observed by microscopy;\nThe average of the percentages for the four regions was regarded as the total positive cell percentage for the indicated knee joint, and the average of the percentages obtained from two persons was regarded as the final experimental result.\nThe positive cell percentage=number of the positive chondrocytes in the field/total number of the chondrocytes in the field×100%."}, "[2]": {"tested_on": "CTX-II", "test": "Determination of the urinary CTX-II content (competitive ELISA, creatinine corrected)", "assay_type": "in vivo, SD rats", "details": "OVX rats, urine at 3, 5, 7 weeks, FIG. 2, vs. model group", "description": "Urine samples (1˜1.5 ml) were collected in eppendorf tubes from the rats before modeling and at 3 weeks, 5 weeks and 7 weeks by using metabolic cages, and stored at −20° C.\n1. The concentrations of CTX-II in the urine samples obtained in accordance with example 1 were determined by the Urine Pre-clinical (PC) Cartilaps ELISA kit and the competitive enzyme linked immunosorbent assay (ELISA). The concentration of creatinine (referred to as “Crea” hereinafter) in the urine samples were determined by the multifunctional biochemistry analyzer (Beckman coulter, DXC800). The CTX-II contents were corrected by the following formula:\nCorrected CTX-II ([…])=CTX-II (μg/L)/Crea (mmol/L) […]\n12) The optical densities (ODs) were determined by a microplate reader (Molecular Devices Corporation, BD03315) at 450 nm and 650 nm, and a 4-parameter logistic regression curve was thereby obtained, so as to read the concentration of each sample.\n4. Determination of Crea in the urine samples (mmol/L): The Crea concentration is determined by using a multiple biochemistry analyzer (Beckman coulter, DXC800) by the Lab Department of Shanghai Ruij in Hospital.\nThe CTX-II baseline ratios were calculated as the above formula, and the results were shown in FIG. 2, wherein ** indicates p<0.01 vs. the model group at the same time point, and * indicates p<0.05 vs. the model group at the same time point."}}, "note": "Marks after values point to notes of the source that are not given here."}
{"smiles": "O=c1c(-c2ccc(O[C@@H]3O[C@H](CO)[C@@H](O)[C@H](O)[C@H]3O)cc2)coc2cc(O)cc(O)c12", "note": "[HDA, 3-[4-(β-D-glucopyranosyl)-benzyl]5,7-dihydro-4H-1-benzopyran-4-one (4′,5,7-trihydroxylisoflavone-4′-D-glucoside)]", "values": [{"measurement": "ER-α positive cells in the articular cartilage, micrograph in words", "setting": "[1]; sophoricoside 10 mg/kg/day", "result": "ER-α positive cells within the superficial layer of articular cartilage were much less"}, {"measurement": "ER-α positive cells in the articular cartilage, micrograph in words", "setting": "[1]; sophoricoside 20 mg/kg/day", "result": "ER-α positive cells within the superficial layer of articular cartilage were much less"}, {"measurement": "ER-α positive cells in the articular cartilage, micrograph in words", "setting": "[1]; sophoricoside 80 mg/kg/day", "result": "more than the OVX group and similar to normal articular cartilage"}, {"measurement": "positive ratio for ER-α expression in the articular chondrocytes, Total", "setting": "[1]; sophoricoside 10 mg/kg/day", "result": "49.520 ± 1.815^□□ %"}, {"measurement": "positive ratio for ER-α expression in the articular chondrocytes, Total", "setting": "[1]; sophoricoside 20 mg/kg/day", "result": "58.624 ± 1.707**^□□ %"}, {"measurement": "positive ratio for ER-α expression in the articular chondrocytes, Total", "setting": "[1]; sophoricoside 40 mg/kg/day", "result": "65.074 ± 1.306**^□□ %"}, {"measurement": "positive ratio for ER-α expression in the articular chondrocytes, Total", "setting": "[1]; sophoricoside 80 mg/kg/day", "result": "77.730 ± 1.125**^□□ %"}, {"measurement": "metabolic peak of urinary CTX-II (ratio to baseline) shortly after ovariectomy", "setting": "[2]; sophoricoside 40 mg/kg/day", "result": "also have this effect, but in a weaker manner"}, {"measurement": "metabolic peak of urinary CTX-II (ratio to baseline) shortly after ovariectomy", "setting": "[2]; sophoricoside 80 mg/kg/day", "result": "significantly suppress the metabolic peak of CTX-II shortly after ovariectomy"}]}
